System: KRAS patient-derived spheroids with HUVEC/MSC, viability
Experiment: Anticancer human tumor 941728-121-R-J1-PDC patient-derived lung adenocarcinoma cell line growth inhibition [KRAS2]
Settings: for IC50: curve of first compound; for viability, T/C: stronger effect = lower value
In short: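 Combination screen of spheroid viability in tumor-cell co-cultures with endothelial (HUVEC) and mesenchymal stem cell stroma. Each agent was tested in half-log dilutions, topping at clinical Cmax or at 10 microM without a known Cmax.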

[1] = second compound 0.0316 µM, first compound 0.0316 µM
[2] = second compound 0.0316 µM, first compound 0.1 µM
[3] = second compound 0.0316 µM, first compound 0.316 µM
[4] = second compound 0.0316 µM, first compound 1 µM
[5] = second compound 0.0316 µM, first compound 3.16 µM
[6] = second compound 0.0316 µM, first compound 10 µM
[7] = second compound 0.1 µM, first compound 0.0316 µM
[8] = second compound 0.1 µM, first compound 0.1 µM
[9] = second compound 0.1 µM, first compound 0.316 µM
[10] = second compound 0.1 µM, first compound 1 µM
[11] = second compound 0.1 µM, first compound 3.16 µM
[12] = second compound 0.1 µM, first compound 10 µM
[13] = second compound 0.316 µM, first compound 0.0316 µM
[14] = second compound 0.316 µM, first compound 0.1 µM
[15] = second compound 0.316 µM, first compound 0.316 µM
[16] = second compound 0.316 µM, first compound 1 µM
[17] = second compound 0.316 µM, first compound 3.16 µM
[18] = second compound 0.316 µM, first compound 10 µM
[19] = second compound 1 µM, first compound 0.0316 µM
[20] = second compound 1 µM, first compound 0.1 µM
[21] = second compound 1 µM, first compound 0.316 µM
[22] = second compound 1 µM, first compound 1 µM
[23] = second compound 1 µM, first compound 3.16 µM
[24] = second compound 1 µM, first compound 10 µM
[25] = second compound 3.16 µM, first compound 0.0316 µM
[26] = second compound 3.16 µM, first compound 0.1 µM
[27] = second compound 3.16 µM, first compound 0.316 µM
[28] = second compound 3.16 µM, first compound 1 µM
[29] = second compound 3.16 µM, first compound 3.16 µM
[30] = second compound 3.16 µM, first compound 10 µM
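Further: spheroids exposed to agents for seven days before readout.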

SMILES | IC50 (second compound 0.0316 µM) | IC50 (second compound 0.1 µM) | IC50 (second compound 0.316 µM) | IC50 (second compound 1 µM) | IC50 (second compound 3.16 µM) | viability, T/C [1] | viability, T/C [2] | viability, T/C [3] | viability, T/C [4] | viability, T/C [5] | viability, T/C [6] | viability, T/C [7] | viability, T/C [8] | viability, T/C [9] | viability, T/C [13] | viability, T/C [14] | viability, T/C [19] | viability, T/C [20] | viability, T/C [25] | viability, T/C [26] | further results
COc1cc(Nc2ncc3c(n2)-c2ccc(Cl)cc2C(c2c(F)cccc2OC)=NC3)ccc1C(=O)O + C=CC(=O)N1CCN(c2nc(OCC3CCCN3C)nc3c2CCN(c2cccc4cccc(C)c24)C3)CC1CC#N | < 31.6 nM | < 31.6 nM | < 31.6 nM | < 31.6 nM | < 31.6 nM | 32.1% | 29.5% | 26.1% | 26.3% | 22.9% | 20.3% | 33.6% | 30.4% | 25.6% | 30.4% | 26.1% | 26.5% | 26.3% | 0.53% | 0.41% | viability, T/C [10]: 25.9%; viability, T/C [11]: 22.8%; viability, T/C [12]: 20.9%; viability, T/C [15]: 26.8%; viability, T/C [16]: 26.1%; viability, T/C [17]: 22%; viability, T/C [18]: 20.3%; viability, T/C [21]: 27.1%; viability, T/C [22]: 22.9%; viability, T/C [23]: 23%; viability, T/C [24]: 16.5%; viability, T/C [27]: 0.87%; viability, T/C [28]: 0.19%; viability, T/C [29]: 0.26%; viability, T/C [30]: 0.18%
COc1cc2nccc(Oc3ccc(NC(=O)C4(C(=O)Nc5ccc(F)cc5)CC4)cc3)c2cc1OC + C=CC(=O)N1CCN(c2nc(OCC3CCCN3C)nc3c2CCN(c2cccc4cccc(C)c24)C3)CC1CC#N | < 31.6 nM | < 31.6 nM | < 31.6 nM | < 31.6 nM | < 31.6 nM | 17.9% | 18% | 15.1% | 13.3% | 7.03% | 7.62% | 14.3% | 15.8% | 15.3% | 15.4% | 16.3% | 14.2% | 14.5% | 0.1% | 0.12% | viability, T/C [10]: 13.3%; viability, T/C [11]: 5.66%; viability, T/C [12]: 6.73%; viability, T/C [15]: 13.1%; viability, T/C [16]: 13.7%; viability, T/C [17]: 4.32%; viability, T/C [18]: 5.26%; viability, T/C [21]: 10.5%; viability, T/C [22]: 7.23%; viability, T/C [23]: 1.37%; viability, T/C [24]: 0.49%; viability, T/C [27]: 0.12%; viability, T/C [28]: 0.09%; viability, T/C [29]: 0.09%; viability, T/C [30]: 0.19%
Cn1ncnc1[C@H]1c2n[nH]c(=O)c3cc(F)cc(c23)N[C@@H]1c1ccc(F)cc1 + C=CC(=O)N1CCN(c2nc(OCC3CCCN3C)nc3c2CCN(c2cccc4cccc(C)c24)C3)CC1CC#N | < 0.316 nM | < 0.316 nM | < 0.316 nM | < 0.316 nM | < 0.316 nM | 17.4% | 17.5% | – | – | – | – | 17.3% | 15.8% | – | 16% | 17.1% | 15.5% | 14.2% | 0.16% | 0.23% | viability, T/C (second compound 0.0316 µM, first compound 0.000316 µM): 24.6%; viability, T/C (second compound 0.0316 µM, first compound 0.001 µM): 23.2%; viability, T/C (second compound 0.0316 µM, first compound 0.00316 µM): 19.4%; viability, T/C (second compound 0.0316 µM, first compound 0.01 µM): 19.7%; viability, T/C (second compound 0.1 µM, first compound 0.000316 µM): 18.3%; viability, T/C (second compound 0.1 µM, first compound 0.001 µM): 18.2%; viability, T/C (second compound 0.1 µM, first compound 0.00316 µM): 19.9%; viability, T/C (second compound 0.1 µM, first compound 0.01 µM): 17.6%; viability, T/C (second compound 0.316 µM, first compound 0.000316 µM): 18.2%; viability, T/C (second compound 0.316 µM, first compound 0.001 µM): 18.9%; viability, T/C (second compound 0.316 µM, first compound 0.00316 µM): 17.9%; viability, T/C (second compound 0.316 µM, first compound 0.01 µM): 16.2%; viability, T/C (second compound 1 µM, first compound 0.000316 µM): 17.6%; viability, T/C (second compound 1 µM, first compound 0.001 µM): 17.5%; viability, T/C (second compound 1 µM, first compound 0.00316 µM): 13.5%; viability, T/C (second compound 1 µM, first compound 0.01 µM): 18.3%; viability, T/C (second compound 3.16 µM, first compound 0.000316 µM): 0.11%; viability, T/C (second compound 3.16 µM, first compound 0.001 µM): 0.2%; viability, T/C (second compound 3.16 µM, first compound 0.00316 µM): 0.09%; viability, T/C (second compound 3.16 µM, first compound 0.01 µM): 0.11%
